Reference: the supplement of paper PMC10307832

compound: CCCS(=O)(=O)Nc1ccc(F)c(C(=O)c2c[nH]c3ncc(-c4ccc(Cl)cc4)cc23)c1F [Vemurafenib] + C[C@]1(O)C[C@@H](c2nc(-c3ccc4ccc(-c5ccccc5)nc4c3)c3c(N)nccn32)C1 [Linsitinib] (partner 1 µM); assay: relative viability (nuclei count vs DMSO), 5 days (fraction); higher = more cells survive; details: first compound 0.03162 µM
Method in brief: (§1)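 Cells from lung cancer lines were seeded into 1536-well plates and, one day later, dosed by pin tool. Treatments were either a single drug or a fixed dose of an anchor drug with five library-drug doses (not always all listed) in √10 steps. After 5 days, nuclei were stained in a one-step fixation (final 0.05% Triton X-100, 1% formaldehyde, 1 ug/ml Hoechst) and counted on 4× images, and relative viability is the treated-to-vehicle nuclei ratio, as the median of duplicate plates.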

Cell Line	relative viability
EKVX	0.942
NCI-H2087	0.882
NCI-H1734	0.859
LCLC-103H	1.09
LU99A	0.484
NCI-H460	0.677
SK-LU-1	0.93
COR-L23	0.774
HCC-15	0.855
NCI-H1944	1.17
EMC-BAC-2	0.798
NCI-H1792	0.505
NCI-H1395	0.948
LC-2-ad	0.801
NCI-H2085	0.862
NCI-H727	0.265
NCI-H647	1.08

same assay, conditions: first compound 0.1 µM

Cell Line	relative viability
NCI-H2087	0.94
NCI-H1734	0.847
LCLC-103H	1.04
LU99A	0.445
NCI-H460	0.839
SK-LU-1	0.958
COR-L23	0.733
HCC-15	0.743
NCI-H1944	0.872
EMC-BAC-2	0.695
NCI-H1792	0.417
NCI-H1395	1.02
LC-2-ad	0.755
NCI-H2085	0.626
NCI-H727	0.281
NCI-H647	0.971

same assay, conditions: first compound 0.3162 µM

Cell Line	relative viability
EKVX	1.03
NCI-H1734	0.759
LCLC-103H	1.06
LU99A	0.586
NCI-H460	0.879
SK-LU-1	0.915
COR-L23	0.789
HCC-15	0.964
NCI-H1944	1.33
EMC-BAC-2	0.807
NCI-H1792	0.484
LC-2-ad	0.873
NCI-H2085	0.797
NCI-H727	0.415
NCI-H647	1.03

same assay, conditions: first compound 1 µM

Cell Line	relative viability
EKVX	1.02
NCI-H2087	0.868
NCI-H1734	0.808
LCLC-103H	1.18
LU99A	0.479
NCI-H460	0.777
SK-LU-1	1.03
COR-L23	1.01
HCC-15	0.824
NCI-H1944	1.15
EMC-BAC-2	0.807
NCI-H1792	0.516
NCI-H1395	1.13
LC-2-ad	0.749
NCI-H2085	1.01
NCI-H727	0.394
NCI-H647	1.14

compound: Cc1nc(NC(=O)N2CCC[C@H]2C(N)=O)sc1-c1ccnc(C(C)(C)C(F)(F)F)c1 [Alpelisib] + CC(=O)Nc1cccc(-n2c(=O)n(C3CC3)c(=O)c3c(Nc4ccc(I)cc4F)n(C)c(=O)c(C)c32)c1 [Trametinib] (partner 0.02 µM); assay: as above; details: first compound 0.04 µM
Method in brief: as §1

Cell Line	relative viability
EKVX	0.306
NCI-H2087	0.183
NCI-H1734	0.566
LCLC-103H	0.669
LU99A	0.573
NCI-H460	0.093
SK-LU-1	0.474
COR-L23	0.534
HCC-15	0.354
NCI-H1944	0.354
EMC-BAC-2	0.818
NCI-H1792	0.271
NCI-H1395	1.07
LC-2-ad	0.902
NCI-H2085	0.57
NCI-H727	0.349
NCI-H647	0.44

same assay, conditions: first compound 0.1265 µM

Cell Line	relative viability
EKVX	0.334
NCI-H2087	0.174
NCI-H1734	0.626
LCLC-103H	0.693
LU99A	0.558
NCI-H460	0.161
SK-LU-1	0.566
COR-L23	0.484
HCC-15	0.37
NCI-H1944	0.425
NCI-H1792	0.383
NCI-H1395	1
LC-2-ad	0.93
NCI-H2085	0.468
NCI-H727	0.387
NCI-H647	0.473

same assay, conditions: first compound 0.4 µM

Cell Line	relative viability
EKVX	0.27
NCI-H2087	0.195
NCI-H1734	0.624
LCLC-103H	0.646
LU99A	0.599
NCI-H460	0.155
SK-LU-1	0.53
COR-L23	0.579
HCC-15	0.366
NCI-H1944	0.4
EMC-BAC-2	0.892
NCI-H1792	0.467
NCI-H1395	1.13
LC-2-ad	0.968
NCI-H2085	0.496
NCI-H727	0.383
NCI-H647	0.523

same assay, conditions: first compound 1.265 µM

Cell Line	relative viability
EKVX	0.341
NCI-H2087	0.163
NCI-H1734	0.533
LCLC-103H	0.567
LU99A	0.425
NCI-H460	0.0725
SK-LU-1	0.392
COR-L23	0.378
HCC-15	0.248
NCI-H1944	0.313
EMC-BAC-2	0.529
NCI-H1792	0.324
NCI-H1395	0.817
LC-2-ad	0.764
NCI-H2085	0.495
NCI-H727	0.301
NCI-H647	0.348

same assay, conditions: first compound 4 µM

Cell Line	relative viability
EKVX	0.249
NCI-H2087	0.164
NCI-H1734	0.394
LCLC-103H	0.475
LU99A	0.386
NCI-H460	0.0881
SK-LU-1	0.345
COR-L23	0.353
HCC-15	0.211
NCI-H1944	0.275
EMC-BAC-2	0.599
NCI-H1792	0.314
NCI-H1395	0.878
LC-2-ad	0.738
NCI-H2085	0.338
NCI-H727	0.308
NCI-H647	0.481

compound: CCCS(=O)(=O)Nc1ccc(F)c(C(=O)c2c[nH]c3ncc(-c4ccc(Cl)cc4)cc23)c1F [Vemurafenib] + CCNC(=O)c1noc(-c2cc(C(C)C)c(O)cc2O)c1-c1ccc(CN2CCOCC2)cc1 [Luminespib] (partner 0.01 µM); assay: as above; details: first compound 0.03162 µM
Method in brief: as §1

Cell Line	relative viability
EKVX	0.884
NCI-H2087	0.166
NCI-H1734	0.196
LCLC-103H	0.914
LU99A	0.224
NCI-H460	0.0379
SK-LU-1	0.208
COR-L23	0.571
HCC-15	0.203
NCI-H1944	0.665
EMC-BAC-2	1.08
NCI-H1792	0.373
NCI-H1395	0.679
LC-2-ad	0.887
NCI-H2085	0.451
NCI-H727	0.309
NCI-H647	0.157

same assay, conditions: first compound 0.1 µM

Cell Line	relative viability
NCI-H2087	0.185
NCI-H1734	0.183
LCLC-103H	0.805
LU99A	0.282
NCI-H460	0.0333
SK-LU-1	0.219
COR-L23	0.744
HCC-15	0.484
NCI-H1944	0.601
EMC-BAC-2	1.03
NCI-H1792	0.345
NCI-H1395	0.445
LC-2-ad	0.978
NCI-H2085	0.425
NCI-H647	0.165

same assay, conditions: first compound 0.3162 µM

Cell Line	relative viability
EKVX	0.921
NCI-H1734	0.233
LCLC-103H	0.899
LU99A	0.259
NCI-H460	0.0345
SK-LU-1	0.171
COR-L23	0.632
HCC-15	0.16
NCI-H1944	0.736
EMC-BAC-2	1.19
NCI-H1792	0.575
NCI-H2085	0.423
NCI-H727	0.313
NCI-H647	0.138

same assay, conditions: first compound 1 µM

Cell Line	relative viability
EKVX	0.842
NCI-H2087	0.162
NCI-H1734	0.2
LCLC-103H	0.967
LU99A	0.288
NCI-H460	0.0293
SK-LU-1	0.218
COR-L23	0.688
HCC-15	0.315
NCI-H1944	0.663
EMC-BAC-2	1.22
NCI-H1792	0.434
NCI-H1395	0.555
LC-2-ad	1.05
NCI-H2085	0.492
NCI-H727	0.353
NCI-H647	0.212

compound: COc1cccc2cc(-c3nc([C@H]4CC[C@H](C(=O)O)CC4)n4ncnc(N)c34)[nH]c12 [OSI-027] + Nc1ncn([C@H]2C[C@H](O)[C@@H](CO)O2)c(=O)n1 [Decitabine] (partner 2 µM); assay: as above; details: first compound 0.01 µM
Method in brief: as §1

Cell Line	relative viability
EKVX	0.643
NCI-H2087	0.268
NCI-H1734	0.559
LCLC-103H	0.748
LU99A	0.773
NCI-H460	0.544
SK-LU-1	0.594
COR-L23	0.482
HCC-15	0.571
NCI-H1944	0.427
EMC-BAC-2	0.97
NCI-H1792	0.587
NCI-H1395	0.696
LC-2-ad	0.827
NCI-H2085	0.545
NCI-H727	0.808
NCI-H647	0.385

same assay, conditions: first compound 0.03162 µM

Cell Line	relative viability
EKVX	0.329
NCI-H2087	0.228
NCI-H1734	0.595
LCLC-103H	0.732
LU99A	0.966
NCI-H460	0.502
SK-LU-1	0.631
COR-L23	0.474
HCC-15	0.642
NCI-H1944	0.46
EMC-BAC-2	0.992
NCI-H1792	0.434
NCI-H1395	0.742
LC-2-ad	0.842
NCI-H2085	0.562
NCI-H727	0.778
NCI-H647	0.543

same assay, conditions: first compound 0.1 µM

Cell Line	relative viability
EKVX	0.363
NCI-H2087	0.24
NCI-H1734	0.503
LCLC-103H	0.707
LU99A	0.675
NCI-H460	0.541
SK-LU-1	0.663
COR-L23	0.379
HCC-15	0.57
NCI-H1944	0.405
EMC-BAC-2	0.934
NCI-H1792	0.56
NCI-H1395	0.684
LC-2-ad	0.779
NCI-H2085	0.611
NCI-H727	0.849
NCI-H647	0.397

same assay, conditions: first compound 0.3162 µM

Cell Line	relative viability
EKVX	0.284
NCI-H2087	0.214
NCI-H1734	0.265
LCLC-103H	0.598
LU99A	0.485
NCI-H460	0.456
SK-LU-1	0.483
COR-L23	0.372
HCC-15	0.537
NCI-H1944	0.443
EMC-BAC-2	0.827
NCI-H1792	0.499
NCI-H1395	0.645
LC-2-ad	0.735
NCI-H2085	0.52
NCI-H727	0.774
NCI-H647	0.248

same assay, conditions: first compound 1 µM

Cell Line	relative viability
EKVX	0.28
NCI-H2087	0.16
NCI-H1734	0.417
LCLC-103H	0.783
LU99A	0.216
NCI-H460	0.241
SK-LU-1	0.406
COR-L23	0.236
HCC-15	0.372
NCI-H1944	0.303
EMC-BAC-2	0.588
NCI-H1792	0.135
NCI-H1395	0.532
LC-2-ad	0.578
NCI-H2085	0.446
NCI-H727	0.761
NCI-H647	0.211
